# Assay results: patent US20080269162A1, “Novel Medicaments for Anti-Retroviral Treatments” (priority 2006, published 2008)
# Where “and” joins values, the source holds several entries; their conditions need not be identical. Identical values can stand only once.
# Assays:
# [1] = system: RT of the PIC CH virus; assay: Direct inhibitory action on RT of the PIC CH virus; format: biochemical, HIV; details: viral concentration corresponding to RT activity of 105,000 dpm, FIG. 8
# Source text: (§1) In order to perform these measurements, the method described in detail hereinbefore was followed (Example 2).
# [2] = system: NDK virus; assay: Number of syncitia in MT4 cell culture infected by NDK virus; format: cell-based, HIV; parameters: key to Number of Syncitia in the Culture (wells), J3 / Number of Syncitia in the Culture (wells), J4 / Number of Syncitia in the Culture (wells), J5 / Number of Syncitia in the Culture (wells), J6: the absence of syncitia is indicated by a minus (−) sign; the (+), +, ++, ++T signs indicate an increasing number of syncitia in each well; the (+), +, ++, ++T signs indicate an increasing number of syncitia in each well; the (+), +, ++, ++T signs indicate an increasing number of syncitia in each well; the (+), +, ++, ++T signs indicate an increasing number of syncitia in each well; The indication “T” indicates the death of the cells; details: 10 μg/mL; for Number of Syncitia in the Culture (wells), J3: day 3; for Number of Syncitia in the Culture (wells), J4: day 4; for Number of Syncitia in the Culture (wells), J5: day 5; for Number of Syncitia in the Culture (wells), J6: day 6
# Description: Then infection of the cells was carried out by adding to each well, with the exception of those wells being used as control cells, 50 μL of previously titrated virus dilution.
# After an additional hour of incubation, the plate was centrifuged and the supernatant containing the residual virus was discarded.
# After 3 days of culture, the cells were diluted to half and the syncitia were observed using the inverse microscope from day 3 to day 7 after having been placed in suspension.
# In the third case, the MT4 cell culture was preincubated for one hour at 37° C., then the cells were infected, the whole was subjected to incubation for one hour at 37° C., then to centrifugation with the elimination of the supernatant containing the virus that had not penetrated into the cells.
# In each of the four types of experiments that have just been described, and as previously indicated, the cells were diluted to half after three days of culture and then the syncitia were observed using the inverted microscope from day 3 to day 7.
# In the experiments described in greater detail hereinafter, the absence of syncitia is indicated by a minus (−) sign and the (+), +, ++, ++T signs indicate an increasing number of syncitia in each well.
# The indication “T” indicates the death of the cells.
# [3] = system: RT of the UG92029 virus; assay: Direct inhibitory action on RT of the UG92029 virus; format: biochemical, HIV; details: viral concentration corresponding to RT activity of 220,000 dpm, FIG. 7
# Source text: as §1
# [4] = biological target: T1, RT of the NDK virus (Human immunodeficiency virus type 1 group M subtype D, UniProt P18802); assay: Direct inhibitory action on RT of the NDK virus; format: biochemical, HIV; details: viral concentration corresponding to RT activity of 81,000 dpm, FIG. 9
# T1 construct: host or cells: virus preparation (native virion RT)
# Source text: as §1
# [5] = system: CEM cells; assay: In vitro cytotoxicity, number of CEM cells
# [6] = Continuous, before, during and after infection
substance,measurement,setting,value
Dextran sulphate,inhibition of RT,[1]; 0.6 μg/mL,does not produce any inhibition at all
same,inhibition of RT,[1]; 0.8 μg/mL,still does not induce any inhibition
same,"Number of Syncitia in the Culture (wells), J3",[2]; After infection,−
same,"Number of Syncitia in the Culture (wells), J4",[2]; After infection,− and +
same,"Number of Syncitia in the Culture (wells), J5",[2]; After infection,− and ++
same,"Number of Syncitia in the Culture (wells), J6",[2]; After infection,− and T
same,"Number of Syncitia in the Culture (wells), J3",[2]; Before infection,−
same,"Number of Syncitia in the Culture (wells), J4",[2]; Before infection,−
same,"Number of Syncitia in the Culture (wells), J5",[2]; Before infection,−
same,"Number of Syncitia in the Culture (wells), J6",[2]; Before infection,−
same,"Number of Syncitia in the Culture (wells), J3",[2]; [6],−
same,"Number of Syncitia in the Culture (wells), J4",[2]; [6],+
same,"Number of Syncitia in the Culture (wells), J5",[2]; [6],++
same,"Number of Syncitia in the Culture (wells), J6",[2]; [6],T
same,"Number of Syncitia in the Culture (wells), J3",[2]; During infection,−
same,"Number of Syncitia in the Culture (wells), J4",[2]; During infection,− and (+)
same,"Number of Syncitia in the Culture (wells), J5",[2]; During infection,− and ++
same,"Number of Syncitia in the Culture (wells), J6",[2]; During infection,++ and T
same,wells inhibited,[2]; cells treated before viral infection,2 wells out of 2 inhibited
same,inhibition of RT,[3]; 2.5 μg/mL,6%
same,inhibition of RT,[3]; 3 μg/mL,8%
same,inhibition of RT,[4]; 0.6 μg/mL,11%
same,inhibition of RT,[4]; 0.8 μg/mL,18%
same,Number of CEM cells,"[5]; Day 1, 125 μg/mL",500000 mL⁻¹ and 900000 mL⁻¹
same,Number of CEM cells,"[5]; Day 1, 250 μg/mL",500000 mL⁻¹ and 900000 mL⁻¹
same,Number of CEM cells,"[5]; Day 1, 1000 μg/mL",800000 mL⁻¹ and 500000 mL⁻¹
same,Number of CEM cells,"[5]; Day 2, 125 μg/mL",1.5e+06 mL⁻¹ and 1e+06 mL⁻¹
same,Number of CEM cells,"[5]; Day 2, 250 μg/mL",1.3e+06 mL⁻¹ and 1.4e+06 mL⁻¹
same,Number of CEM cells,"[5]; Day 2, 500 μg/mL",1.3e+06 mL⁻¹ and 1.7e+06 mL⁻¹
same,Number of CEM cells,"[5]; Day 2, 1000 μg/mL",1.3e+06 mL⁻¹ and 1.7e+06 mL⁻¹
same,Number of CEM cells,"[5]; Day 3, 125 μg/mL",2.3e+06 mL⁻¹ and 2.1e+06 mL⁻¹
same,Number of CEM cells,"[5]; Day 3, 250 μg/mL",1.9e+06 mL⁻¹
same,Number of CEM cells,"[5]; Day 3, 500 μg/mL",2.1e+06 mL⁻¹ and 1.5e+06 mL⁻¹
same,Number of CEM cells,"[5]; Day 3, 1000 μg/mL",2e+06 mL⁻¹ and 2.7e+06 mL⁻¹
